This passage reports target mRNA inhibition results from the OligoGym collection.

The data set addresses HSD17B13. As to conditions: ASO, HepaRG.

After the bases stand the sugars from the 5' end (letter, count) and the backbone: PS all phosphorothioate, else s phosphorothioate and o phosphodiester by linkage. Methylation of C is not given here. e = 2'-O-(2-methoxyethyl) (MOE); k = constrained ethyl (cEt); d = 2'-deoxy (DNA); m = 2'-O-methyl

Where the note is “1 µM”, AAAAAGCTTATCGAGT (sugars k3 d10 k3, PS) showed a target mRNA inhibition of 8%.
As for AAAAGGTTATCATGGG (sugars k3 d10 k3, PS), for the setting “1 µM”, the target mRNA inhibition was 49%.
On the same count and under the same terms, to “AAAATAGAGTCGGTCA (sugars k3 d9 k3 e1, PS)” belongs 65%.
Turning to AAAATAGAGTCGGTCA (sugars k3 d10 k3, PS), the target mRNA inhibition is 28% (0.02 µM); 27% (0.078 µM); 51% (0.313 µM); 71% (1 µM); 69% (1.25 µM); 91% (5 µM).
In turn, AAAATGTCCTAGGATG (sugars k3 d10 k3, PS) displayed a target mRNA inhibition (1 µM) of 0%.
On the same count and under the same terms, as for “AAACAAGAGGATAGTC (sugars k3 d1 m1 d8 k3, PS)”, the figure is 53%; as for AAACATGGATGTTAGG (sugars k3 d10 k3, PS), 56%.
The same measure, in the same setting: to AAACTAGTGGTAATGG (sugars k3 d10 k3, PS) belongs 47%.
On the same count and under the same terms, as for AAACTTCACCAACGAC (sugars k3 d10 k3, PS), the figure is 27%; as for “AAAGACTTTGAGACTC (sugars k3 d9 k3 e1, PS)”, 67%; as for “AAAGACTTTGAGACTC (sugars kkdddddddddkekek, PS)”, 45%.
AAAGATCTGGCCAGTT (sugars k3 d10 k3, PS): under “1 µM”, the target mRNA inhibition was found to be 3%.
Still for that read-out and setting: as for AAAGATGTACACTGAC (sugars k3 d10 k3, PS), the figure is 57%.
AAAGTCAGTATCCCCT (sugars k3 d10 k3, PS): the target mRNA inhibition came out at 7% (0.02 µM); 21% (0.078 µM); 40% (0.313 µM); 77% (1 µM); 79% (1.25 µM); 82% (5 µM).
For the setting “1 µM”, AAAGTTAATAGGACTA (sugars k3 d10 k3, PS) showed a target mRNA inhibition of 12%.
Still for that read-out and setting: as for AAATAGAGTCGGTCAC (sugars k3 d10 k3, PS), the figure is 59%; as for AAATATAGAGGGTCCA (sugars k3 d10 k3, PS), 0%.
“AAATATGTCCAGGTTG (sugars k3 d9 k3 e1, PS)”: the target mRNA inhibition by setting is: (0.02 µM) 3%; (0.078 µM) 0%; (0.313 µM) 16%; (1 µM) 74%; (1.25 µM) 60%; (5 µM) 88%.
Take AAATATGTCCAGGTTG (sugars k3 d10 k3, PS): under “1 µM”, the target mRNA inhibition amounted to 68%.
The same measure, in the same setting: as for AAATGTCTTGGTAATC (sugars k3 d10 k3, PS), the figure is 30%; as for AAATTACTCCGTTCTG (sugars k3 d10 k3, PS), 28%; as for AAATTAGAGGCCCAGG (sugars k3 d10 k3, PS), 43%.
Still for that read-out and setting: as for AACAAGAGGATAGTCC (sugars k3 d10 k3, PS), the figure is 54%.
The sequence AACAAGATTAGTCTTG (sugars k3 d10 k3, PS) returned a target mRNA inhibition (1 µM) of 40%.
For the setting “1 µM”, AACAATCTCCCCAGCC (sugars k3 d10 k3, PS) came in with a target mRNA inhibition of 59%.
Still for that read-out and setting: as for AACAGTCTTAAACCTT (sugars k3 d10 k3, PS), the figure is 82%.
For the sequence “AACAGTCTTAAACCTT (sugars kkdddddddddkekek, PS)”, the target mRNA inhibition (1 µM) was found to be 37%.
As for AACATCTCTGGGACCA (sugars k3 d10 k3, PS), the target mRNA inhibition by setting is: (0.02 µM) 0%; (0.078 µM) 11%; (0.313 µM) 44%; (1 µM) 74%; (1.25 µM) 64%; (5 µM) 81%.
In turn, AACCAATTATATGAGG (sugars k3 d10 k3, PS) showed a target mRNA inhibition (1 µM) of 38%.
Under “1 µM”, AACCTTGAATGAGTGG (sugars k3 d10 k3, PS) displayed a target mRNA inhibition of 50%.
The same measure, in the same setting: as for AACTAGAACTCCCAAC (sugars k3 d10 k3, PS), the figure is 0%.
Same read-out and setting: to AACTGAGCTAGACAAT (sugars k3 d10 k3, PS) belongs 44%; to AAGAATAGGAGAGTCT (sugars k3 d10 k3, PS), 70%; to AAGACATTCTAGCCTG (sugars k3 d10 k3, PS), 63%.
Turning to AAGAGCCAAACTGCTA (sugars k3 d10 k3, PS), the target mRNA inhibition by setting is: (0.02 µM) 0%; (0.078 µM) 0%; (0.313 µM) 11%; (1 µM) 63%; (1.25 µM) 46%; (5 µM) 66%.
“AAGAGTCAGTATCCTC (sugars k3 d1 m1 d8 k3, PS)” gave a target mRNA inhibition (1 µM) of 55%.
On the same count and under the same terms, to “AAGAGTCAGTATCCTC (sugars k3 d9 k3 e1, PS)” belongs 67%.
Same read-out and setting: as for AAGATCGGCTGGATAT (sugars k3 d10 k3, PS), the figure is 1%.
Same read-out and setting: as for AAGCTTATCGAGTTTA (sugars k3 d10 k3, PS), the figure is 26%; as for AAGGAAGAGGCTAGGG (sugars k3 d10 k3, PS), 57%.
Under “1 µM”, AAGGAGCCAGTTATGA (sugars k3 d10 k3, PS) displayed a target mRNA inhibition of 57%.
The same measure, in the same setting: to AAGGAGTATGACAACT (sugars k3 d10 k3, PS) belongs 28%; to AAGGCCTGAAGTTCTG (sugars k3 d10 k3, PS), 5%.
Same read-out and setting: as for AAGTATTCCATCTATC (sugars k3 d10 k3, PS), the figure is 52%; as for “AAGTTAGCCCCCAGGA (sugars kkdddddddddkekek, PS)”, 12%; as for AAGTTAGTATAGTTAT (sugars k3 d10 k3, PS), 20%.
Still for that read-out and setting: as for AAGTTATTATCCCCAC (sugars k3 d10 k3, PS), the figure is 60%.
Consider AAGTTCTGATGTCAGA (sugars k3 d10 k3, PS), for which the target mRNA inhibition (1 µM) came to 7%.
AATAACTGTTCTCCCC (sugars k3 d10 k3, PS) registered a target mRNA inhibition (1 µM) of 20%.
Take “AATAATAGCTCTATTG (sugars k3 d1 m1 d8 k3, PS)”: the target mRNA inhibition (1 µM) was 16%.
Sequence AATAATAGCTCTATTG (sugars k3 d10 k3, PS) showed a target mRNA inhibition (1 µM) of 0%.
As for AATAATGGGCAGAGCT (sugars k3 d10 k3, PS), the target mRNA inhibition (1 µM) was found to be 43%.
On to AATACAGGCCATAATC (sugars k3 d10 k3, PS), for which the target mRNA inhibition (1 µM) turned out to be 16%.
On the same count and under the same terms, to “AATAGCCAGTACAGTT (sugars k3 d9 k3 e1, PS)” belongs 61%; to AATATAGCCCTTTCCC (sugars k3 d10 k3, PS), 44%.
The same measure, in the same setting: as for AATATCCCACAGAACC (sugars k3 d10 k3, PS), the figure is 60%; as for AATATGGGATGAGGTA (sugars k3 d10 k3, PS), 53%; as for “AATATTGAGGCACTGG (sugars kkdddddddddkekek, PS)”, 29%.
Same read-out and setting: as for “AATGCTACTTGAACAG (sugars k3 d9 k3 e1, PS)”, the figure is 50%; as for AATGTATCTTATAAGA (sugars k3 d10 k3, PS), 10%; as for AATGTCTTGGTAATCT (sugars k3 d10 k3, PS), 20%.
Consider AATTAAGATGTCCAGG (sugars k3 d10 k3, PS), for which the target mRNA inhibition (1 µM) worked out at 13%.
On the same count and under the same terms, to AATTCACCTTGACTAA (sugars k3 d10 k3, PS) belongs 9%.
The same measure, in the same setting: to AATTCATAAGTAGTCT (sugars k3 d10 k3, PS) belongs 28%; to “AATTGATACACCAATG (sugars k3 d1 m1 d8 k3, PS)”, 40%; to “AATTGATACACCAATG (sugars k3 d9 k3 e1, PS)”, 53%.
Regarding AATTGATACACCAATG (sugars k3 d10 k3, PS), the target mRNA inhibition (1 µM) was 55%.
Same read-out and setting: as for AATTTTCAGATCCCGT (sugars k3 d10 k3, PS), the figure is 74%; as for ACAAGTAAGGTAAAGT (sugars k3 d10 k3, PS), 38%.
The same measure, in the same setting: as for ACAATACAGGATAGAG (sugars k3 d10 k3, PS), the figure is 23%.
On to “ACAAUATGGGATGAGG (sugars k3 d1 m1 d8 k3, PS)”, for which the target mRNA inhibition (0.02 µM) was determined as 0%; the target mRNA inhibition (0.078 µM) was 2%; the target mRNA inhibition (0.313 µM) was determined as 0%; the target mRNA inhibition (1 µM) worked out at 70%; the target mRNA inhibition (1.25 µM) came to 48%; the target mRNA inhibition (5 µM) came to 59%.
Turning to ACACTAATGAATCATG (sugars k3 d10 k3, PS), where the note is “1 µM”, the target mRNA inhibition is 7%.
Same read-out and setting: as for ACAGACTGTTGAGCTC (sugars k3 d10 k3, PS), the figure is 53%; as for “ACAGATTGGAATGCTA (sugars k3 d1 m1 d8 k3, PS)”, 70%.
Take “ACAGATTGGAATGCTA (sugars k3 d9 k3 e1, PS)”: the target mRNA inhibition was determined as 18% (0.02 µM); 21% (0.078 µM); 38% (0.313 µM); 68% (1 µM); 62% (1.25 µM); 76% (5 µM).
For the sequence ACAGCATCAAGACATT (sugars k3 d10 k3, PS), the target mRNA inhibition (1 µM) was 53%.
Still for that read-out and setting: to ACAGGATAGAGCACAT (sugars k3 d10 k3, PS) belongs 44%.
Same read-out and setting: as for “ACAGTAAAATTATGCC (sugars kkdddddddddkekek, PS)”, the figure is 28%.
Same read-out and setting: as for “ACAGUAAAATTATGCC (sugars k3 d1 m1 d8 k3, PS)”, the figure is 24%; as for ACATACCACTCTTCTC (sugars k3 d10 k3, PS), 35%; as for ACATAGGCTTAGTGTA (sugars k3 d10 k3, PS), 0%.
